Patent US11370773B1, “Inhibiting human integrin (alpha-4) (beta-7)” (Morphic Therapeutic, Inc., priority 2019, dated 2022)

Biological target: T1, integrin α4β7 (Homo sapiens, UniProt P13612+P26010)
T1 sequence (P13612 34-977 limits assumed): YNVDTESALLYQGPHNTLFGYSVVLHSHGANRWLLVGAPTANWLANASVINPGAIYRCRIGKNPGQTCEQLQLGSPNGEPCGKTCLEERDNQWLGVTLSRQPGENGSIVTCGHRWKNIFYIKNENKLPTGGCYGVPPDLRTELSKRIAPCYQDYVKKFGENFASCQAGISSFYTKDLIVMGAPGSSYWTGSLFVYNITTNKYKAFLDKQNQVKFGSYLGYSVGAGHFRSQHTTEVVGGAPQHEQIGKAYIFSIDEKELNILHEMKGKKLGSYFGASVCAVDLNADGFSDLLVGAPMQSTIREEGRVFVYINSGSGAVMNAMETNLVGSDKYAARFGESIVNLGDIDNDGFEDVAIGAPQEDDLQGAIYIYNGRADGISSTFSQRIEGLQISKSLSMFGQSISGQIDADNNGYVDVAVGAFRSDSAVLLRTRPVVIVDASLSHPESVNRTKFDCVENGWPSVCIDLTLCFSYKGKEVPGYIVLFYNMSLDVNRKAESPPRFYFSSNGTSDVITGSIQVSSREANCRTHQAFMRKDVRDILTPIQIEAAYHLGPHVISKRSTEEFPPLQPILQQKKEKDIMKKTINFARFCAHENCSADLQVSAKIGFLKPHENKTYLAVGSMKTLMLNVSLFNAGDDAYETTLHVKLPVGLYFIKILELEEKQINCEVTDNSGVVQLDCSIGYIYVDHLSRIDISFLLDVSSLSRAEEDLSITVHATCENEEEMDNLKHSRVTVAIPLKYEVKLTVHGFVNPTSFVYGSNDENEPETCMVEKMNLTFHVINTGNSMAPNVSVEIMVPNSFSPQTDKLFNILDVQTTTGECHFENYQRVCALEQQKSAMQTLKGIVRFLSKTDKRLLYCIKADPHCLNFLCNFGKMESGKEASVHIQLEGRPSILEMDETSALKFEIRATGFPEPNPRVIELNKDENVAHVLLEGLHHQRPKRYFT
T1 sequence (P26010 20-723 limits assumed): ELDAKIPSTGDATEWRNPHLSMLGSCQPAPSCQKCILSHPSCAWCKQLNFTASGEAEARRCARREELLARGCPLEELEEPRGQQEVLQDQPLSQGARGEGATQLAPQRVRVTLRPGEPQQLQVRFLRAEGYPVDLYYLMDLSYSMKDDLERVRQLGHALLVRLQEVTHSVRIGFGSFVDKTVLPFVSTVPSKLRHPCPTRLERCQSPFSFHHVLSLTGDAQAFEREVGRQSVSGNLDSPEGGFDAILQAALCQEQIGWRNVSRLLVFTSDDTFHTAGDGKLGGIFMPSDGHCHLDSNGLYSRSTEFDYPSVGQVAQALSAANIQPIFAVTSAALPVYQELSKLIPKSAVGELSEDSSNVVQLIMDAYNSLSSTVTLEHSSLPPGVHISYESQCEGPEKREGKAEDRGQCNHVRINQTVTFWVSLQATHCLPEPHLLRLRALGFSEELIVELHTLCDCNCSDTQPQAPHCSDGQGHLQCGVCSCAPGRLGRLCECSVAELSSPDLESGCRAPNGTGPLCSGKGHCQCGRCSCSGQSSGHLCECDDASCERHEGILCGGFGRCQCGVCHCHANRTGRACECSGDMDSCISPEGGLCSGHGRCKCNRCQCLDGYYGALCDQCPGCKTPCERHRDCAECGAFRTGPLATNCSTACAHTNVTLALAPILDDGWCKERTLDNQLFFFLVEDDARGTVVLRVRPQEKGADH
Experiment: Fluorescence Polarization (FP) assay for α4β7 binding, competition with fluorescein-labeled peptide
Conditions: 6.5 nM integrin α4β7, 3 nM fluorescein-labeled peptide, 2 mM MnCl2; read-out: FP Assay (Example 5) IC50
Method: Three in vitro assays were used to examine the α4β7 mechanistic process used by cells: 1) ligand:receptor affinity, 2) the avidity of those interactions on a cell's surface, and 3) how those interactions fare under an imposing force. In Example 5, a Fluorescence Polarization (FP) assay is used to measure compound activity through binding competition with the fluorescein-labeled peptide. In Example 6, the potency of compounds against α4β7 is measured in the cell-based ligand binding assay (LBA), using RPMI 8866 cells incubated with the compound samples in competition with soluble MAdCAM-1 ligand. In Example 7, activity of compounds is evaluated in a cell adhesion assay that mechanistically tests what occurs in vivo when trafficking cells utilize α4β7 to adhere to MAdCAM-1 expressing HEVs of the gut during the extravasation process. In the cell adhesion assay of Example 7, a MAdCAM1-(Fc) is coated on plastic, and α4β7 expressing cells (RPMI-8866) are allowed to adhere to the coated surface in the presence of the test compounds. Next, the force of washing with buffer is applied to cells thereby testing the strength of that adhesion. Unattached cells are removed and the remaining adherent cells are quantified.
Fluorescence Polarization (FP) assays were used to measure compound activity through binding competition with the fluorescein-labeled peptide […]{Lys(FITC)}. In the assay, 6.5 nM of integrin α4β7 was incubated with the test compound in 2 mM manganese chloride, 0.1 mM calcium chloride, 20 mM HEPES buffer at pH 7.3, 150 mM sodium chloride, 0.01% Triton X-100, 2% DMSO, and 3 nM of the fluorescein-labeled peptide. Running the assays in 384-well plates, the integrin protein was pre-incubated with the test compounds for 15 minutes at 22° C. before the fluorescein-labeled peptide was added. After the fluorescein-labeled peptide was added, the assay was incubated at 22° C. for 1 hour and fluorescence polarization was measured. IC50 values were determined by non-linear regression, four-parameter curve fitting.

Row | Compound | IC50 [nM]
1 | Cc1cc(C)c(-c2cc(C(F)(F)F)c(F)c([C@H](CC(=O)O)NC(=O)[C@H](CC(C)C)n3cc(CCCN(C)C)c(C(F)(F)F)cc3=O)c2F)c(C)c1 [HZ-P2, (3S)-3-(2,4-difluoro-2′,4′,6′-trimethyl-5-(trifluoromethyl)biphenyl-3-yl)-3-(2-(5-(3-(dimethylamino)propyl)-2-oxo-4-(trifluoromethyl)pyridin-1(2H)-yl)-4-methylpentanamido)propanoic Acid] | ≤ 10
2 | Cc1cc(C)c(-c2cc(C3CC3)c(F)c([C@H](CC(=O)O)NC(=O)[C@H](CC(C)C)n3cc(CCN4CCC4)c(C(F)(F)F)cc3=O)c2F)c(C)c1 [HM-P2, (3S)-3-(2-(5-(2-(azetidin-1-yl)ethyl)-2-oxo-4-(trifluoromethyl)pyridin-1(2H)-yl)-4-methylpentanamido)-3-(5-cyclopropyl-2,4-difluoro-2′,4′,6′-trimethylbiphenyl-3-yl)propanoic Acid] | ≤ 10
3 | Cc1cc(F)c(C)c(C)c1-c1cc(C(F)(F)F)c(F)c([C@H](CC(=O)O)NC(=O)[C@H](CC(C)C)n2cc(CCN3CCC3)c(C(F)(F)F)cc2=O)c1F [KT-P2, (3S)-3-(2-(5-(2-(azetidin-1-yl)ethyl)-2-oxo-4-(trifluoromethyl)pyridin-1(2H)-yl)-4-methylpentanamido)-3-(2,4,4′-trifluoro-2′,3′,6′-trimethyl-5-(trifluoromethyl)-[1,1′-biphenyl]-3-yl)propanoic Acid] | ≤ 10
4 | Cc1cc(C)c(-c2cc(C(F)(F)F)c(F)c([C@H](CC(=O)O)NC(=O)[C@H](CC(C)C)n3cc(CCN(C)C)c(C(F)(F)F)cc3=O)c2F)c(C)c1 [IF-P2, (3S)-3-(2,4-difluoro-2′,4′,6′-trimethyl-5-(trifluoromethyl)-[1,1′-biphenyl]-3-yl)-3-(2-(5-(2-(dimethylamino)ethyl)-2-oxo-4-(trifluoromethyl)pyridin-1(2H)-yl)-4-methylpentanamido)propanoic Acid] | ≤ 10
5 | Cc1cc(-c2c(C)ccc(F)c2C)cc([C@H](CC(=O)O)NC(=O)C(CC(C)C)n2cc(CCN3CCC3)c(C(F)(F)F)cc2=O)c1F (single isomer, unassigned) [AF-P2] | ≤ 10
6 | Cc1cc(C)c(-c2cc(C(F)(F)F)c(F)c([C@H](CC(=O)O)NC(=O)[C@H](CC(C)C)n3cc(CCN4CCC4)c(C(F)(F)F)cc3=O)c2F)c(C)c1 [IG-P2, (3S)-3-(2-(5-(2-(azetidin-1-yl)ethyl)-2-oxo-4-(trifluoromethyl)pyridin-1(2H)-yl)-4-methylpentanamido)-3-(2,4-difluoro-2′,4′,6′-trimethyl-5-(trifluoromethyl)biphenyl-3-yl)propanoic Acid] | ≤ 10
7 | Cc1ccn([C@@H](NC(C)C)C(=O)N[C@@H](CC(=O)O)c2cncc(-c3c(C)cccc3C)c2)c(=O)c1 [Example C-7, reference compound] | ≤ 10
8 | Cc1cc(-c2c(C)cc(F)cc2C)cc([C@H](CC(=O)O)NC(=O)[C@H](CC(C)C)n2cc(CCN(C)C)cc(C(F)F)c2=O)c1F [I-P2, (3S)-3-(4,4′-difluoro-2′,5,6′-trimethyl-[1,1′-biphenyl]-3-yl)-3-(2-(3-(difluoromethyl)-5-(2-(dimethylamino)ethyl)-2-oxopyridin-1(2H)-yl)-4-methylpentanamido)propanoic Acid] | ≤ 10
9 | Cc1cc(C2CC2)cc(C)c1-c1cc(C(F)(F)F)c(F)c([C@H](CC(=O)O)NC(=O)[C@H](CC(C)C)n2cc(CCCN(C)C)c(C(F)(F)F)cc2=O)c1F [HU-P2, (3S)-3-(4′-cyclopropyl-2,4-difluoro-2′,6′-dimethyl-5-(trifluoromethyl)-[1,1′-biphenyl]-3-yl)-3-(2-(5-(3-(dimethylamino)propyl)-2-oxo-4-(trifluoromethyl)pyridin-1(2H)-yl)-4-methylpentanamido)propanoic Acid] | ≤ 10
10 | Cc1ccn([C@@H](CC(C)C)C(=O)N[C@H](CC(=O)O)c2cncc(-c3c(C)cccc3C)c2)c(=O)c1 [Example C-28, reference compound] | 10 to 500
11 | Cc1cc(F)cc(C)c1-c1cc(C(F)(F)F)c(F)c([C@H](CC(=O)O)NC(=O)[C@H](CC(C)C)n2cc(CCCN(C)C)c(C(F)(F)F)cc2=O)c1F [HW-P2, (3S)-3-(2-(5-(3-(dimethylamino)propyl)-2-oxo-4-(trifluoromethyl)pyridin-1(2H)-yl)-4-methylpentanamido)-3-(2,4,4′-trifluoro-2′,6′-dimethyl-5-(trifluoromethyl)-[1,1′-biphenyl]-3-yl)propanoic Acid] | ≤ 10
12 | Cc1cc(C)c(-c2cc(C)c(F)c([C@H](CC(=O)O)NC(=O)[C@H](CC(C)C)n3cc(CCCN(C)C)c(C(F)(F)F)cc3=O)c2F)c(C)c1F [IW-P2, (3S)-3-(2-(5-(3-(dimethylamino)propyl)-2-oxo-4-(trifluoromethyl)pyridin-1(2H)-yl)-4-methylpentanamido)-3-(2,3′,4-trifluoro-2′,4′,5,6′-tetramethyl-[1,1′-biphenyl]-3-yl)propanoic Acid] | ≤ 10
13 | Cc1ccc(F)c(C)c1-c1cc(C2CC2)c(F)c([C@H](CC(=O)O)NC(=O)[C@H](CC(C)C)n2cc(CCN3CCC3)c(C(F)(F)F)cc2=O)c1F [HH-P2, (3S)-3-(2-(5-(2-(azetidin-1-yl)ethyl)-2-oxo-4-(trifluoromethyl)pyridin-1(2H)-yl)-4-methylpentanamido)-3-(5-cyclopropyl-2,3′,4-trifluoro-2′,6′-dimethyl-[1,1′-biphenyl]-3-yl)propanoic Acid] | ≤ 10
